Results on three substances are retold here after paper PMC6995525, “Structure of the PUB Domain from Ubiquitin Regulatory X Domain Protein 1 (UBXD1) and Its Interaction with the p97 AAA+ ATPase” (Biomolecules, 2019).

The target of assay [1] is T1, UBXD1-PUB (Homo sapiens, UniProt Q9BZV1).
T1 construct: N-terminal hexahistidine-tagged UBXD1-PUB (150–264) was cloned into a pET28a expression vector; hexahistidine (His6) (N); made in house
T1 sequence (Q9BZV1 150-264): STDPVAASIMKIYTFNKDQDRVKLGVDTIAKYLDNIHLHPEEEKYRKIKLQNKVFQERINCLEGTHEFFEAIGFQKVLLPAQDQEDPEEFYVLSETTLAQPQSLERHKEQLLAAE
Nature of the assay: 15N-HSQC NMR titration of 15N-labeled UBXD1-PUB with p97 peptides. Format: binding. To be noted: 50 mM NaKPi pH 6.5, 25 °C; for binding in 15N-HSQC NMR titration: phosphorylated p97-C13-pY805, 270 µM protein, up to 1.25 mM peptide, 1.2 mM or 1.1 mM (Figure S1). The procedure: The NMR samples contained 200–800 µM of ^15N,^13C- or ^15N-labeled protein in 50 mM NaKPi pH 6.5, 90%/10% (v/v) H2O/D2O. ^13C(aliphatic)-COSY and TOCSY experiments were measured in the same buffer with 100% D2O. All spectra were recorded at 25 °C on a 700 MHz Bruker Ultrashield NMR spectrometer equipped with a 5 mm TCI (^1H/^13C/^15N) triple resonance cryoprobe head. Spectra were processed with Topspin 3.5 (Bruker) and analyzed with CARA [42].
To 362 μM ^15N-labeled UBXD1-PUB, the p97-C10 or p97-C13 peptides were added stepwise to a final concentration of 1.1 mM. For the titration of the phosphorylated p97-C13-pY^805 peptide to the PUB domain, the protein concentration was 270 µM, and the peptide was titrated to a final concentration of 1.2 mM. After each addition, the ^1H,^15N-HSQC spectrum was recorded.
The chemical shift perturbation Δδtotal was calculated from the ^1H- and ^15N-shifts according to Equation (1) using the spectra with no peptide and the highest concentration of peptide, where ΔδN and ΔδH represent the chemical shift perturbation value of the amide nitrogen and proton, respectively:(1) Δδtotal=(ΔδH)^2+(0.154⋅ΔδN)^2.

For assay [2], the target named is HOIP PUB domain. To be noted: ref [25],[27],[34]; cited from earlier work. The source says: (§1) UBXD1, PNGase, and HOIP PUB domains bind the p97-PIM peptide with KDs in the low µM range and a 1:1 stoichiometry (Table 2, Figure 4, Figure 5 and Figure S2, and [25, 27, 34]). The KD of HOIP for the OTULIN- and SPATA2-PIMs, however, is 50 times lower and lies in the nM range, which maybe reflects that these complexes either operate at lower concentrations in the cell or a have a lesser need to exchange their binding partners. p97, on the other hand, might need to swap cofactors more readily either within one pathway or to switch between different pathways.

Assay [3] has as its target PNGase PUB domain. To be noted: ref [25],[27],[34]; cited from earlier work.
From the text: as §1

Assay [4] has as its target T2, UBXD1 PUB domain (Homo sapiens, UniProt Q9BZV1).
T2 construct: N-terminal hexahistidine-tagged UBXD1-PUB (150–264) was cloned into a pET28a expression vector; hexahistidine (His6) (N); made in house
T2 sequence (Q9BZV1 150-264): T1 sequence (Q9BZV1 150-264)
In words: p97-PIM peptide binding to UBXD1 PUB domain (summary). To be noted: isolated p97-PIM peptide. The protocol: Fluorescence anisotropy measurements (excitation: 495 nm; emission 518 nm) were carried out on a JASCO FP-8300 fluorescence spectrometer in 50 mM NaKPi, pH 6.5 at 25 °C, titrating PUB constructs to 5,6-FAM labeled p97-C10 peptide (100 nM). All titrations were performed in triplicate. Binding curves of the averaged data were fitted with GraphPad Prism 5.0 (GraphPad) using the quadratic binding equation for a one-site specific binding model:(3) r=r0+rmax⋅(F+x+KD)−(F+x+KD)^2−4⋅x⋅F/2⋅F, with r = anisotropy, r0 = anisotropy without protein, rmax = maximum anisotropy, F = fluorescent probe (labeled peptide or protein) concentration, x = titrant protein concentration, and KD = dissociation constant.
ITC measurements were performed in triplicate with a MicroCal iTC2000 (Malvern Pananalytical). UBXD1-PUB (100 µM) was titrated with 1 mM of p97-C10 peptide in 50 mM NaKPi buffer (pH 6.5) at 25 °C in 40 steps with a volume of 0.5 µL for the first 9 steps and 1.0 µL for the remaining ones.

SVYTEDNDDDLYG [p97-C13]: the “chemical shift perturbations (CSPs) Δδtotal” value in assay [1] (362 μM 15N-UBXD1-PUB, peptide to 1.1 mM, resonances between second and fourth α-helix) is given as more than 0.2 ppm.
As for SVYTEDNDDDLpYG [phosphorylated p97-C13], the results for the “binding in 15N-HSQC NMR titration” value in assay [1] and in assay [1] (listed as p97-C13 peptide carrying a phosphorylated pY805) were “no” and “did not show any binding”, respectively.
Take “p97-PIM peptide: PUB interacting motif (PIM) in the p97 C-terminus (TEDNDDDLYG)”: the “KD of PUB domain for p97-PIM peptide” value in assay [2], in assay [3] and in assay [4] was “low µM range” throughout.
